Measurements taken from patent publication US20060281806A1, “Treatment and inhibition of disease conditions using flexible heteroarotinoids” (priority 2005, published 2006).
“Also recorded” adds a separate entry of the source.

How the values were obtained:
[1] = system: CC-1 human cervical cell line; assay: In vitro cytotoxicity (SRB growth inhibition) assay, CC-1; type: cell-based; set-up: dose or concentration left out as unconfirmed; conditions: 72 h
Procedure: The SHetA2, SHetA3, SHetA4, SHet50 and 9-cis-RA compounds were evaluated in 4 cervical carcinoma cell lines. The SiHa, CC-1 and C33a human cervical cell lines were maintained in Minimal Essential Media (MEM) containing Earle's salts and L-glutamine supplemented with nonessential amino acids, 1% sodium pyruvate, 10% fetal bovine serum (FBS) and antibiotic/antimycotic. The HT-3 cervical carcinoma cell line was cultured in McCoy's 5a medium supplemented with 10% FBS and antibiotic/antimycotic. Cells were inoculated into 96 well microtiter plates at densities of 1000 cells/well and incubated for 24 h prior to addition of drugs. Drugs were dissolved in dimethyl sulfoxide (DMSO) and diluted in complete medium, prior to addition to triplicate culture wells to achieve final concentrations of […]. Following drug addition, the plates were incubated for 72 h. The assay was terminated by the addition of cold TCA and the cells were stained with 0.4% sulforhodamine B (SRB) in 1% acetic acid. Bound stain was subsequently solubilized with 10 mM trizma base, and the absorbance was read on an automated plate reader at a wavelength of 560 nm. Growth inhibition was determined by dividing the average Optical Density (OD) of the triplicated treated cultures by the average OD of the triplicate control cultures treated with DMSO solvent only. This ratio was converted into a percentage by multiplying by 100. The potency (concentration required to induce half of the maximal activity—GI50) were derived from dose-response graphs generated with results from 3 to 5 individual experiments using GraphPad Software.

OVCAR-3 xenograft tumors = assay: OVCAR-3 xenograft tumor animal model, tumor growth; type: in vivo, mouse; conditions: 10 mg/kg/day by gavage, 5 days/week, 4 weeks; t-test on day 29
Procedure: Groups of 5 mice bearing OVCAR-3 xenografted tumors were gavaged daily with the indicated drugs in sesame oil (▪ closed square) or with sesame oil alone (∘ open circle). Tumor volumes were measured in 3 dimensions with calipers weekly. Each data point represents the average and standard error of the tumor volumes on the indicated treatment day relative to the tumor volume on day zero. Nu/nu mice were injected subcutaneously with one million OVCAR-3 cells and arbitrarily divided into five groups of six mice each. After three weeks of tumor growth, the animals were gavaged with sesame oil, 10 mg/kg/day 4-HPR, or the indicated Het five times per week for four weeks and the tumors were measured once per week. The tumor sizes were averaged and divided by the average size for each group on the day that treatment was initiated (day 0).
The OVCAR-3 cultures were maintained in RPMI media supplemented with 10% fetal bovine serum. All animal experimentation described in this manuscript was conducted in accord with accepted standards of humane animal care. Twenty-five female NU/NU CD-1 female mice (Charles Rivers Laboratories) were housed in a laminar flow room under sterile conditions at 83-85° F. The mice were quarantined for one week prior to the beginning of the study and were allowed access to autoclaved food (Purina 5001 mouse/rat sterilizable diet, St. Louis, Mo.) and water ad libitum. OVCAR-3 cells in log phase growth were harvested by trypsinization, resuspended in RPMI culture medium, and centrifuged at 3,000 rpm for 10 min. The pellets were resuspended in RPMI culture medium at a concentration of 7×10^6 cells/ml before implantation into mice. Animals were injected with 3.5×10^6 cells into the right scapular region with a 24-gauge needle/1 cc tuberculin syringe. Twenty-four hours after tumor implantation, animals were randomized into 5 groups of 5 animals each.
The Hets SHet50, SHetA2 and SHetA4 were synthesized and their receptor specificity determined as previously described (17,19). The 4-HPR compound was a gift from R.W. Johnson Pharmaceutical Research Institute, Raritan, N.J. All retinoids were dissolved in super refined sesame oil (Croda, Inc., Parsippany, N.J.) and stored at −80° C. Since the retinoids are light sensitive, all manipulations involving retinoids were performed under subdued lighting. […] Tumors were measured with calipers weekly, and tumor volumes were calculated using the formula: volume=length×width×height. Tumor growth was determined by the dividing the volume of the tumor at each weekly measurement by the volume on the first day of treatment. Animal weights and clinical signs of overall health status and cutaneous toxicities were recorded weekly.

[2] = system: dorsal skin of female Skh hairless mice; assay: Topical irritancy; type: in vivo; conditions: mouse, in vivo
Procedure: Female Skh hairless mice, 6-8 weeks old, were treated topically on the dorsal skin for 4 days over a 2-log concentration dose range with various compounds. Retinoic acid receptor-Hets were evaluated in A, while retinoic acid receptor-independent Flex-Hets were evaluated in B. Daily flaking and abrasion scores were combined to calculate a single cutaneous toxicity score for each mouse. Each treatment group consisted of 4 mice, and group averages were used to plot cutaneous toxicity against doses of the compounds.
Topical irritancy was evaluated according to published procedures (29). Briefly, female Skh hairless mice, 6-8 weeks old, were treated topically on the dorsal skin for 4 days over a 2-log concentration dose range with various compounds. Daily flaking and abrasion scores were combined to calculate a single cutaneous toxicity score for each mouse. Each treatment group consists of 4 mice, and group averages are used to plot cutaneous toxicity against dose of the retinoid compound.

[3] = system: blood vessel density in bFGF/VEGF-treated CAMs; assay: Chorioallantoic membrane (CAM) assay; type: in vivo, chick; conditions: 5 μM SHetA2; versus bFGF/VEGF-treated CAMs
Procedure: FIG. 8. Effect of 5 μM SHetA2 on blood vessel density in the CAM assay. The mean± SEM blood vessel density per treatment as compared to bFGF/VEGF-treated CAMs; *=p<0.05 and **=p<0.001 as compared to bFGF/VEGF-treated CAMs as determined by one-way ANOVA and Neuman-Keuls post-test.
The CAM assay that was used is based upon the original procedure by Jakob et al. (36) with modifications made by our laboratory (37, 38) (see FIG. 8).

[4] = system: Thymidine Phosphorylase (TP); assay: Real time rt-PCR and Western blot validation, TP; type: cell-based; conditions: 1 μM (rt-PCR, OVCAR-3) and 10 μM (Western blot, A2780)
Procedure: FIG. 13. Real Time rt-PCR validation of SHetA2 inhibition of TP and TSP-1 mRNA Expression. OVCAR-3 cultures were treated with 1 μM SHetA2 for the indicated period of time prior to harvesting the cells and isolating RNA. cDNA was prepared and used in real time rt-PCR reactions. Real time rt-PCR was performed on CDNA from cultures various treatment times.
FIG. 14. Western blot validation of SHetA2 inhibition of TP and TSP4 protein expression. A2780 ovarian cancer cells were treated with 10 μM SHetA2 for the indicated amounts of time. Equal amounts of whole cell protein extracts were evaluated by Western blot.

SMILES: CC1(C)CC(C)(C)c2cc(NC(=S)Nc3ccc([N+](=O)[O-])cc3)ccc2S1 [SHetA2]
- Efficacy: percent growth inhibition relative to the untreated control [1]: 58%
- growth of xenograft tumors versus sesame oil control (OVCAR-3 xenograft tumors): significantly inhibited the growth; also recorded: significantly less
- topical irritancy (cutaneous toxicity score) [2]: did not induce topical irritancy
- angiogenesis (blood vessel density) in CAM assay [3]: inhibits angiogenesis
- expression of TP at the RNA and protein levels [4]: inhibit expression
